Measured values: PMC8760490, “Discovery of novel furanylbenzamide inhibitors that target oncogenic tyrosine phosphatase SHP2 in leukemia cells” (The Journal of Biological Chemistry, 2021)
pIC50: −log10 of the molar value.

Legend:
[1] = biological target: T1, PTP1B (1–300) catalytic domain (Homo sapiens, UniProt P18031); assay: DiFMUP phosphatase inhibition assay, PTP1B; format: biochemical; settings: for pIC50: catalytic domain, DiFMUP at Km (25 μM); for selectivity for SHP2 over PTP1B: from IC50 values against catalytic domains
T1 construct: Recombinant human PTP1B (1–300); His tag (pET-15b) (N); made in house; host or cells: E. coli BL21(DE3)
T1 sequence (P18031 1-300): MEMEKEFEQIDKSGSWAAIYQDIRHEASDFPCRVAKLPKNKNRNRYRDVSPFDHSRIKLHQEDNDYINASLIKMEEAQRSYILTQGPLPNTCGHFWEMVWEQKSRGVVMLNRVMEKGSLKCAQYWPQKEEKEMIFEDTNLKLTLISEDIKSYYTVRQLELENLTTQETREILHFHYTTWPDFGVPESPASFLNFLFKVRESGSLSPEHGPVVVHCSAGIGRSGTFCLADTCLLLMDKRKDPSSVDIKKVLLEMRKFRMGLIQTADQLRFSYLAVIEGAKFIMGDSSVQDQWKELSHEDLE
Experimental: (§1) Selectivity is one of the biggest challenges in PTP inhibitor development. […] Similar to SHP2, we adapted a 384-well plate format DiFMUP assay for recombinant PTP1B and STEP and performed Michaelis–Menten experiments to determine DiFMUP Km values for each phosphatase. IC50 values of our inhibitors for PTP1B and STEP were determined in 10-point dose–response assays with DiFMUP used at the concentration corresponding to the respective Km value. […] Other inhibitors with good relative selectivity for SHP2 included SBI-4668 (13-fold selective over PTP1B; 73-fold selective over STEP) and SBI-3404 (fivefold selective over PTP1B; >71-fold selective over STEP).
(§2) Recombinant human full-length SHP2 (1–594) WT and E76K mutants, as well as the SHP2cat (248–527), were expressed and purified as described before ([36], [41]). Recombinant human PTP1B (1–300) and the codon-optimized STEP (280–566) catalytic domains were cloned into PET-15b and expressed as N-His-tagged fusion proteins. For expression, transformed BL21(DE3) cells were grown and induced similar as described for SHP2. Collected cells were resuspended in lysis buffer (25 mM Tris, pH 7.5, 300 mM NaCl, 50 mM imidazole, and 10% glycerol) with 100 mg/l RNaseA and were lysed with two passages using a microfluidizer. The lysate was clarified by centrifugation at 15,000g for 50 min and applied to nickel–nitrilotriacetic acid resin. The column resin was washed, and the PTP1B or STEP protein was eluted in lysis buffer at 300 mM imidazole. The PTP1B or STEP protein was further purified by S75 size-exclusion chromatography in 50 mM Tris, pH 7.5, 50 mM NaCl. The eluted peak fractions were supplemented with tris(2-carboxyethyl)phosphine to 10 mM, concentrated by ultrafiltration, and stored at −80 °C. The purified yield of PTP1B was 33 mg/l cell culture; the yield of STEP was 16 mg/l cell culture.
(§3) SHP2 inhibitors were tested at RT in a 384-well plate format standard phosphatase fluorescence intensity assay using DiFMUP (Invitrogen/Thermo Fisher Scientific) as a substrate and a total reaction volume of 25 μl. SHP2 inhibitors or vehicle (DMSO) were spotted in triplicate into a black Greiner FLUOTRAC 200 384-well microplate (catalog no.: 781076; Greiner) for a 10-point dose–response assay using an Echo 555 Liquid Handler (Labcyte, Inc). PTP working solutions were prepared at a 0.625 nM concentration (for a final concentration of 0.5 nM) in buffer containing 50 mM Bis–Tris, pH 6.0, 50 mM NaCl, 5 mM DTT, and 0.01% Tween-20. Prior to the assay, a dually phosphorylated IRS-1 peptide (625 nM [500 nM final] ([30])) was added to full-length WT SHP2 working solutions and incubated for 20 min. DiFMUP working solutions at 5× final concentration were prepared in 50 mM Bis–Tris, pH 6.0, 50 mM NaCl, and 0.01% Tween-20. About 20 μl of PTP working solution was dispensed into the microplate and incubated with inhibitor for 20 min at RT. […] The reaction was initiated by addition of 5 μl DiFMUP working solutions. Fluorescence intensity was measured in kinetic mode (every minute for 7 or 10 min) using a Tecan Spark Multimode Microplate Reader (Tecan) with an excitation wavelength of 360 nm and an emission wavelength of 460 nm. The initial rates were determined from the linear progression curves of the PTP reaction. The nonenzymatic hydrolysis of the substrate was corrected by using a control without addition of enzyme. IC50 values were calculated from the corrected initial rates by nonlinear regression using the program GraphPad Prism, version 8 (GraphPad Software, Inc) software. Dose–response inhibition assays of SHP2cat using the substrate OMFP were performed similarly as described previously for DiFMUP. OMFP was used at a concentration corresponding to its Km value for SHP2cat (50 μM final). Fluorescence intensity was measured in kinetic mode (every minute for 10 min) using a Tecan Spark Multimode Microplate Reader with an excitation wavelength of 485 nm and an emission wavelength of 535 nm. […]

[2] = biological target: T2, STEP (280–566) catalytic domain (Homo sapiens, UniProt P54829); assay: DiFMUP phosphatase inhibition assay, STEP; format: biochemical; settings: for pIC50: catalytic domain, DiFMUP at Km (4 μM); for selectivity for SHP2 over STEP: from IC50 values against catalytic domains
T2 construct: the codon-optimized STEP (280–566) catalytic domains; His tag (pET-15b) (N); made in house; host or cells: E. coli BL21(DE3)
T2 sequence (P54829 280-565 limits assumed): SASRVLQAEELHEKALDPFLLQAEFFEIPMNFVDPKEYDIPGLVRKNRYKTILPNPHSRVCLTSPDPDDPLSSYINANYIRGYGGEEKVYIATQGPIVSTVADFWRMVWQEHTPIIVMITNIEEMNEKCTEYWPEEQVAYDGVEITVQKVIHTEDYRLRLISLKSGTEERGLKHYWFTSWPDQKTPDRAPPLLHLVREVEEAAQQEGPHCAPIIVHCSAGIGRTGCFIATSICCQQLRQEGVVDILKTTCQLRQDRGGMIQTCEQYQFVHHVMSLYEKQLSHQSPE
Experimental: as §1, §2, §3

Row | pIC50 [1] | pIC50 [2] | selectivity for SHP2 over PTP1B [1] | selectivity for SHP2 over STEP [2] [fold] | SMILES
1 | 5.28 | 5.11 |  |  | O=C1/C(=C/c2ccc(-c3ccc(O)c(-c4nn[nH]n4)c3)o2)Sc2ccccc21 [SBI-3405, (Z)-2-((5-(4-Hydroxy-3-(2H-tetrazol-5-yl)phenyl)furan-2-yl)methylene)benzo[b]thiophen-3(2H)-one]
2 | 5.72 | 4.57 |  |  | O=C1CCCC1=Cc1ccc(-c2ccc(O)c(C(=O)Nc3ccccc3)c2)o1 [SBI-3192, 2-Hydroxy-5-(5-((2-oxocyclopentylidene)methyl)furan-2-yl)-N-phenylbenzamide]
3 | 5.17 | 4.36 | 31 fold | 200 | Nc1ccc(NC(=O)c2cc(-c3ccc(/C=C4\Sc5ccccc5C4=O)o3)ccc2O)cc1 [SBI-2130, (Z)-N-(4-Aminophenyl)-2-hydroxy-5-(5-((3-oxobenzo[b]thiophen-2(3H)-ylidene)methyl)furan-2-yl)benzamide]
4 | 5.13 |  | fivefold | > 71 | N#Cc1cc(-c2ccc(/C=C3\Sc4ccccc4C3=O)o2)ccc1O [SBI-3404, (Z)-2-Hydroxy-5-(5-((3-oxobenzo[b]thiophen-2(3H)-ylidene)methyl)furan-2-yl)benzonitrile]

Row | SMILES | pIC50 [1] | pIC50 [2] | selectivity for SHP2 over PTP1B [1] | selectivity for SHP2 over STEP [2] [fold]
5 | O=C(Nc1ccccc1)c1cc(-c2ccc(/C=C3\Sc4ccccc4C3=O)o2)ccc1O [SBI-4668, (Z)-2-Hydroxy-5-(5-((3-oxobenzo[b]thiophen-2(3H)-ylidene)methyl)furan-2-yl)-N-phenylbenzamide] | 5.03 | 4.28 | 13 fold | 73
